# According to patent US20180022780A1, “STABILIZATION ADRENOMEDULLIN DERIVATIVES AND USE THEREOF” (priority 2014, published 2018):
# Bridge positions count the residues as written; N and C are the ends. Square brackets hold non-standard residues; d marks the D form. Peptide text beside a SMILES is read from it. * marks the point of attachment. Palmitoyl = CCCCCCCCCCCCCCCC(=O)*; Orn = NCCC[C@H](N)C(=O)O; Dab = NCC[C@H](N)C(=O)O
# Molecular target: T1, CLR fused to EYFP and RAMP2 fused to ECFP (Homo sapiens, UniProt O60895+Q16602)
# T1 construct: EYFP; ECFP; expressed in transfected cells; host or cells: HEK-293 cells, transient co-transfection
# Experiment: cAMP assay (CRE luciferase reporter, HEK-293 cells transiently co-transfected with CLR and RAMP2)
# Assay type: cell-based
# Details: Table 2, cAMP assay; HEK-293, CLR/RAMP2, CRE luciferase, 3 h stimulation, normalized to [G^14]ADM(14-52)
# Protocol: HEK-293 cells (human embryonic kidney cells) were cultured in Ham's F-12/DMEM (1/1; v/v) containing 15% FCS under humidified atmosphere at 37° C. and 5% CO2 in 75 cm^2 cell culture flasks.
# Cells were cultured in 75 cm^2 flasks to 70-80% confluency. 45 μl Metafectene® Pro was diluted in 900 μl Ham's F-12/DMEM (1/1; v/v) and incubated for 20 min at room temperature. 9000 ng plasmid containing DNA of CLR fused to EYFP and 3000 ng plasmid containing DNA of RAMP2 fused to ECFP were dissolved in 900 μl Ham's F-12/DMEM (1/1; v/v). The plasmid solution was mixed with the Metafectene® Pro solution and incubated for 25 min at room temperature. Medium was removed from the cells and replaced by 6 ml Ham's F-12/DMEM (1/1; v/v) containing 15% FCS. After addition of transfection solution the cells were incubated for 3 h under humidified atmosphere at 37° C. and 5% CO2.
# For the second transfection 45 μl Metafectene® Pro was diluted in 900 μl Ham's F-12/DMEM (1/1; v/v) and incubated for 20 min at room temperature. 12000 ng of pGL4.29[luc2P/CRE/Hygro] plasmid containing DNA for the luciferase reporter gene luc2P (with CRE promotor region) were dissolved in 900 μl Ham's F-12/DMEM (1/1; v/v). The plasmid solution was mixed with the Metafectene® Pro solution and incubated for 25 min at room temperature. Medium was removed from the cells and replaced by 6 ml Ham's F-12/DMEM (1/1; v/v) containing 15% FCS. After addition of transfection solution the cells were incubated under humidified atmosphere at 37° C. and 5% CO2 over night.
# For the coating of 96-well-plates 50 μl of a Poly-D-Lysine solution (1 ml stock solution of Poly-D-Lysin-hydrobromid/10 ml DPBS) were pipetted in each well and incubated for 40 min. After removal of the Poly-D-Lysine each well was washed with 50 μl DPBS. Transiently transfected cells were detached from the cell culture flask by removal of the medium, twofold washing with 5 m1 DPBS and resuspending in 13 ml Ham's F-12/DMEM (1/1; v/v) containing 15% FCS. 90000 to 120000 cells in 150 μl Ham's F-12/DMEM (1/1; v/v) containing 15% FCS were seeded per well and the plates were incubated under humidified atmosphere at 37° C. and 5% CO2 over night.
# For each ligand a serial dilution giving eight different concentrations was prepared using Ham's F-12/DMEM (1/1; v/v). Before stimulation the medium on the cells was replaced by 100 μl Ham's F-12/DMEM (1/1; v/v) and the plates were incubated for 1 h under humidified atmosphere at 37° C. and 5% CO2. For stimulation the medium was removed again and the cells were incubated for 3 h in 80 μl of ligand-solution under humidified atmosphere at 37° C. and 5% CO2. In addition 80 μl of a 5 μM forskolin solution (in Ham's F-12/DMEM (1/1; v/v)) was used as a positive control and 80 μl of Ham's F-12/DMEM (1/1; v/v) as a negative control. Each concentration and the controls were tested as triplicates.
# After 3 h of stimulation, the solutions were removed and the cells were washed with 50 μl of Ham's F-12/DMEM (1/1; v/v) per well. After 10 min incubation in 30 μl of Ham's F-12/DMEM (1/1; v/v) at room temperature, 30 μl of luciferase-solution (ONE-Glo™ Luciferase Assay System) was added and the luminescence was directly measured using an Infinite M200 (Tecan).
# Data analysis of the luminescence measurement was carried out with GraphPad Prism 5. Therefore the measured luminescence values of each plate were first corrected on the base of the respective average of forskolin stimulation. Afterwards they were normalized to [G^14]ADM(14-52) which was used as standard peptide in every assay. After correction and normalization data was analysed using non-linear regression giving dose-response curves for each tested ligand.
# T1 sequence (Q16602 23-461): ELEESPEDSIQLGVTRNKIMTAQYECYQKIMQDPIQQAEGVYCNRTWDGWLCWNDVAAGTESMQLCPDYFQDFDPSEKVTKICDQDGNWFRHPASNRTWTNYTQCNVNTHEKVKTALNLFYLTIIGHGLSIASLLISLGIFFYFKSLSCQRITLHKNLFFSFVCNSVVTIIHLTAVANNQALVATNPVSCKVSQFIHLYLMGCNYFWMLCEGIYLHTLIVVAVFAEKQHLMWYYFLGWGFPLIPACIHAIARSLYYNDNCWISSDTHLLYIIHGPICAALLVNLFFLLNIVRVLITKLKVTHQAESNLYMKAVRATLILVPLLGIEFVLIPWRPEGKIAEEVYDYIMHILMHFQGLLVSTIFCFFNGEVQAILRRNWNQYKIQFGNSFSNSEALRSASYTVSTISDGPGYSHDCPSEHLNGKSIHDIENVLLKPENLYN
# T1 sequence (O60895 43-175): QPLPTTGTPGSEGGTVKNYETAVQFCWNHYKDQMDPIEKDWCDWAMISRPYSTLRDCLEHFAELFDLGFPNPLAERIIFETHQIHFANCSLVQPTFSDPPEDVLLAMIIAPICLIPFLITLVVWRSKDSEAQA
row,EC50,SMILES
1,20 nM,"CC[C@H](C)[C@H](NC(=O)[C@H](CCC(N)=O)NC(=O)[C@H](Cc1c[nH]cn1)NC(=O)[C@H](C)NC(=O)[C@H](CC(C)C)NC(=O)[C@H](CCCCN)NC(=O)[C@H](CCC(N)=O)NC(=O)[C@@H](NC(=O)[C@@H](NC(=O)[C@@H]1CCCNC(=O)C[C@H](NC(=O)CNC(=O)CN)C(=O)N[C@@H](CCCNC(=N)N)C(=O)N[C@@H](Cc2ccccc2)C(=O)NCC(=O)N[C@@H]([C@@H](C)O)C(=O)N1)[C@@H](C)O)C(C)C)C(=O)N[C@@H](Cc1ccc(O)cc1)C(=O)N[C@@H](CCC(N)=O)C(=O)N[C@@H](Cc1ccccc1)C(=O)N[C@H](C(=O)N[C@@H](CC(=O)O)C(=O)N[C@@H](CCCCN)C(=O)N[C@@H](CC(=O)O)C(=O)N[C@@H](CCCCN)C(=O)N[C@@H](CC(=O)O)C(=O)N[C@@H](CC(N)=O)C(=O)N[C@H](C(=O)N[C@@H](C)C(=O)N1CCC[C@H]1C(=O)N[C@@H](CCCNC(=N)N)C(=O)N[C@@H](CO)C(=O)N[C@@H](CCCCN)C(=O)N[C@H](C(=O)N[C@@H](CO)C(=O)N1CCC[C@H]1C(=O)N[C@@H](CCC(N)=O)C(=O)NCC(=O)N[C@@H](Cc1ccc(O)cc1)C(N)=O)[C@@H](C)CC)C(C)C)[C@@H](C)O [Example 8, ((2S,5S,11S,14S,21S)-21-(2-(2-aminoacetamido)acetamido)-5-benzyl-2-(3-guanidinopropyl)-11-((R)-1-hydroxyethyl)-3,6,9,12,19,22-hexaoxo-1,4,7,10,13,18-hexaazacyclodocosane-14-carbonyl)-L-threonyl-ADM(22-52)] (H-GGDRFGT[Orn]TVQKLAHQIYQFTDKDKDNVAPRSKISPQGY-NH2; lactam 3-8)"
2,41 nM,"CC[C@H](C)[C@H](NC(=O)[C@H](CCC(N)=O)NC(=O)[C@H](Cc1c[nH]cn1)NC(=O)[C@H](C)NC(=O)[C@H](CC(C)C)NC(=O)[C@H](CCCCN)NC(=O)[C@H](CCC(N)=O)NC(=O)[C@@H](NC(=O)[C@@H](NC(=O)[C@@H]1CCNC(=O)CC[C@H](NC(=O)CNC(=O)CN)C(=O)N[C@@H](CCCNC(=N)N)C(=O)N[C@@H](Cc2ccccc2)C(=O)NCC(=O)N[C@@H]([C@@H](C)O)C(=O)N1)[C@@H](C)O)C(C)C)C(=O)N[C@@H](Cc1ccc(O)cc1)C(=O)N[C@@H](CCC(N)=O)C(=O)N[C@@H](Cc1ccccc1)C(=O)N[C@H](C(=O)N[C@@H](CC(=O)O)C(=O)N[C@@H](CCCCN)C(=O)N[C@@H](CC(=O)O)C(=O)N[C@@H](CCCCN)C(=O)N[C@@H](CC(=O)O)C(=O)N[C@@H](CC(N)=O)C(=O)N[C@H](C(=O)N[C@@H](C)C(=O)N1CCC[C@H]1C(=O)N[C@@H](CCCNC(=N)N)C(=O)N[C@@H](CO)C(=O)N[C@@H](CCCCN)C(=O)N[C@H](C(=O)N[C@@H](CO)C(=O)N1CCC[C@H]1C(=O)N[C@@H](CCC(N)=O)C(=O)NCC(=O)N[C@@H](Cc1ccc(O)cc1)C(N)=O)[C@@H](C)CC)C(C)C)[C@@H](C)O [Example 10, ((2S,5S,11S,14S,21S)-21-(2-(2-aminoacetamido)acetamido)-5-benzyl-2-(3-guanidinopropyl)-11-((R)-1-hydroxyethyl)-3,6,9,12,18,22-hexaoxo-1,4,7,10,13,17-hexaazacyclodocosane-14-carbonyl)-L-threonyl-ADM(22-52)] (H-GGERFGT[Dab]TVQKLAHQIYQFTDKDKDNVAPRSKISPQGY-NH2; lactam 3-8)"
3,84 nM,"CC[C@H](C)[C@H](NC(=O)[C@H](CCC(N)=O)NC(=O)[C@H](Cc1c[nH]cn1)NC(=O)[C@H](C)NC(=O)[C@H](CC(C)C)NC(=O)[C@H](CCCCN)NC(=O)[C@H](CCC(N)=O)NC(=O)[C@@H](NC(=O)[C@@H](NC(=O)[C@@H]1CCC(=O)NCC[C@H](NC(=O)CNC(=O)CN)C(=O)N[C@@H](CCCNC(=N)N)C(=O)N[C@@H](Cc2ccccc2)C(=O)NCC(=O)N[C@@H]([C@@H](C)O)C(=O)N1)[C@@H](C)O)C(C)C)C(=O)N[C@@H](Cc1ccc(O)cc1)C(=O)N[C@@H](CCC(N)=O)C(=O)N[C@@H](Cc1ccccc1)C(=O)N[C@H](C(=O)N[C@@H](CC(=O)O)C(=O)N[C@@H](CCCCN)C(=O)N[C@@H](CC(=O)O)C(=O)N[C@@H](CCCCN)C(=O)N[C@@H](CC(=O)O)C(=O)N[C@@H](CC(N)=O)C(=O)N[C@H](C(=O)N[C@@H](C)C(=O)N1CCC[C@H]1C(=O)N[C@@H](CCCNC(=N)N)C(=O)N[C@@H](CO)C(=O)N[C@@H](CCCCN)C(=O)N[C@H](C(=O)N[C@@H](CO)C(=O)N1CCC[C@H]1C(=O)N[C@@H](CCC(N)=O)C(=O)NCC(=O)N[C@@H](Cc1ccc(O)cc1)C(N)=O)[C@@H](C)CC)C(C)C)[C@@H](C)O [Example 11, ((2S,5S,11S,14S,21S)-21-(2-(2-aminoacetamido)acetamido)-5-benzyl-2-(3-guanidinopropyl)-11-((R)-1-hydroxyethyl)-3,6,9,12,17,22-hexaoxo-1,4,7,10,13,18-hexaazacyclodocosane-14-carbonyl)-L-threonyl-ADM(22-52)] (H-GG[Dab]RFGTETVQKLAHQIYQFTDKDKDNVAPRSKISPQGY-NH2; lactam 3-8)"
4,29 nM,"CCCCCCCCCCCCCCCC(=O)NCCCC[C@H](N)C(=O)NCC(=O)N[C@H]1CCC(=O)NCCCC[C@@H](C(=O)N[C@H](C(=O)N[C@H](C(=O)N[C@@H](CCC(N)=O)C(=O)N[C@@H](CCCCN)C(=O)N[C@@H](CC(C)C)C(=O)N[C@@H](C)C(=O)N[C@@H](Cc2c[nH]cn2)C(=O)N[C@@H](CCC(N)=O)C(=O)N[C@H](C(=O)N[C@@H](Cc2ccc(O)cc2)C(=O)N[C@@H](CCC(N)=O)C(=O)N[C@@H](Cc2ccccc2)C(=O)N[C@H](C(=O)N[C@@H](CC(=O)O)C(=O)N[C@@H](CCCCN)C(=O)N[C@@H](CC(=O)O)C(=O)N[C@@H](CCCCN)C(=O)N[C@@H](CC(=O)O)C(=O)N[C@@H](CC(N)=O)C(=O)N[C@H](C(=O)N[C@@H](C)C(=O)N2CCC[C@H]2C(=O)N[C@@H](CCCNC(=N)N)C(=O)N[C@@H](CO)C(=O)N[C@@H](CCCCN)C(=O)N[C@H](C(=O)N[C@@H](CO)C(=O)N2CCC[C@H]2C(=O)N[C@@H](CCC(N)=O)C(=O)NCC(=O)N[C@@H](Cc2ccc(O)cc2)C(N)=O)[C@@H](C)CC)C(C)C)[C@@H](C)O)[C@@H](C)CC)C(C)C)[C@@H](C)O)NC(=O)[C@H]([C@@H](C)O)NC(=O)CNC(=O)[C@H](Cc2ccccc2)NC(=O)[C@H](CCCNC(=N)N)NC1=O [Example 12, ((2S,5S,11S,14S,23S)-23-(2-((S)-2-amino-6-palmitamidohexanamido)acetamido)-5-benzyl-2-(3-guanidinopropyl)-11-((R)-1-hydroxyethyl)-3,6,9,12,20,24-hexaoxo-1,4,7,10,13,19-hexaazacyclotetracosane-14-carbonyl)-L-threonyl-ADM(22-52)] (H-K(Palmitoyl)GERFGTKTVQKLAHQIYQFTDKDKDNVAPRSKISPQGY-NH2; lactam 3-8)"
